In series [1] the target is HisVAC cephalosporin C acylase (Pseudomonas N176 derived, parent Seq. ID #1) variant A215Y. The series can be described thus: Product inhibition of mutant A215Y. It is filed as biochemical. Here is the method: (§1) Kinetics parameters of the mutants and HisVAC acylase were determined measuring the hydrolysis of cephalosporin C or glutaryl 7-ACA in 0.1 M phosphate buffer solution, pH 8.0 at 37° C. (then converted in units at 25° C.). The amount of 7-ACA is determined spectrophotometrically, using a standard curve, measuring the yellow intensity at 415 nm (Schiff base), resulting upon reaction with p-dimethylaminobenzaldehyde, using modified Bulasingham method (Biochem. Biophys. Acta 276, 250, 1972).

For series [2], the target named is HisVAC cephalosporin C acylase (Pseudomonas N176 derived, parent Seq. ID #1) variant A215F. Kind of series: Product inhibition of mutant A215F. It is filed as biochemical. Here is the method: as §1
Series [3] concerns HisVAC cephalosporin C acylase (Pseudomonas N176 derived, parent Seq. ID #1) variant A215E. Kind of series: Hydrolysis kinetics of mutant A215E. It is filed as biochemical. The note with it: for Km: 0.1 M phosphate; for Km / Vmax: pH 8.0, 37° C.; for Vmax: converted in units at 25° C. On the procedure: (§2) 1. Site-Directed Mutagenesis
as §1
(§3) One acylase unit is the amount of enzyme (in solution or immobilized) which, under the assay conditions, produces one micromole of 7-ACA/minute.

Series [4] deals with HisVAC cephalosporin C acylase, wild-type (designed on Pseudomonas N176 acylase, Phe270, C-terminal LEHHHHHH), Seq. ID #1. Kind of series: Hydrolysis kinetics of wild-type HisVAC acylase. It is filed as biochemical. The note with it: for Km: 0.1 M phosphate; for Km / Vmax: pH 8.0, 37° C.; for Vmax: converted in units at 25° C.; for Inhibition after: substrate concentration after which inhibition occurs. Here is the method:
Said sequence was introduced in order to make the subsequent chromatographic purification easier, using pET24 plasmid as the cloning and expression vector. This plasmid is resistant to kanamycin and is able to insert a “His-Tag sequence” at the C-terminus of the protein and a “T7-Tag sequence” at the N-terminus.
as §1, §3

For series [5], the system named is HisVAC cephalosporin C acylase (Pseudomonas N176 derived, parent Seq. ID #1) variant A215Y. The series can be described thus: Hydrolysis kinetics of mutant A215Y. It is filed as biochemical. The note with it: for Km: 0.1 M phosphate; for Km / Vmax: pH 8.0, 37° C.; for Vmax: converted in units at 25° C.; for Inhibition after: substrate concentration after which inhibition occurs. On the procedure: as §2, §1, §3

Series [6] relates to HisVAC cephalosporin C acylase (Pseudomonas N176 derived, parent Seq. ID #1) variant A215F. Kind of series: Hydrolysis kinetics of mutant A215F. It is filed as biochemical. To be noted: for Km: 0.1 M phosphate; for Km / Vmax: pH 8.0, 37° C.; for Vmax: converted in units at 25° C. Here is the method:
as §2, §1, §3

For series [7], the system named is HisVAC cephalosporin C acylase (Pseudomonas N176 derived, parent Seq. ID #1) variant A215L. The series can be described thus: Hydrolysis kinetics of mutant A215L. To be noted: for Km: 0.1 M phosphate; for Km / Vmax: pH 8.0, 37° C.; for Vmax: converted in units at 25° C.; for Inhibition after: substrate concentration after which inhibition occurs. It is filed as biochemical. Here is the method:
as §2, §1, §3

Series [8] relates to HisVAC cephalosporin C acylase (Pseudomonas N176 derived, parent Seq. ID #1) variant H296T. Kind of series: Hydrolysis kinetics of mutant H296T. It is filed as biochemical. The note with it: for Km: 0.1 M phosphate; for Km / Vmax: pH 8.0, 37° C.; for Vmax: converted in units at 25° C.; for Inhibition after: substrate concentration after which inhibition occurs. Here is the method: as §2, §1, §3

The subject of series [9] is HisVAC cephalosporin C acylase (Pseudomonas N176 derived, parent Seq. ID #1) variant H296N. The series can be described thus: Hydrolysis kinetics of mutant H296N. It is filed as biochemical. To be noted: for Km: 0.1 M phosphate; for Km / Vmax: pH 8.0, 37° C.; for Vmax: converted in units at 25° C.; for Inhibition after: substrate concentration after which inhibition occurs. On the procedure:
as §2, §1, §3

In series [10] the test system is HisVAC cephalosporin C acylase (Pseudomonas N176 derived, parent Seq. ID #1) variant A215V. Kind of series: Hydrolysis kinetics of mutant A215V. The note with it: for Km: 0.1 M phosphate; for Km / Vmax: pH 8.0, 37° C.; for Vmax: converted in units at 25° C.; for Inhibition after: substrate concentration after which inhibition occurs. It is filed as biochemical. Here is the method:
as §2, §1, §3

Series [11] relates to HisVAC cephalosporin C acylase (Pseudomonas N176 derived, parent Seq. ID #1) variant H296S. Kind of series: Hydrolysis kinetics of mutant H296S. It is filed as biochemical. The note with it: for Km: 0.1 M phosphate; for Km / Vmax: pH 8.0, 37° C.; for Vmax: converted in units at 25° C.; for Inhibition after: substrate concentration after which inhibition occurs. Here is the method:
as §2, §1, §3

Series [12] can be described thus: Conversion of cephalosporin C to 7-ACA with acylase in solution (HPLC). It is filed as biochemical. The note with it: 2.27 g/l cephalosporin C, 167.2 total units. Here is the method: 0.053 g cephalosporin C, dihydrate sodium salt (86% purity) is dissolved in 20 ml of 100 mM potassium phosphate buffer, pH 8 (2.27 g/l, assuming a 100% purity) and added to 6.4 ml purified acylase (167.2 total units). The mixture is incubated at 20° C., under stirring, keeping the pH at 8 by addition of diluted sodium hydroxide.

Series [13] can be described thus: Stability of the enzyme (pH, temperature). It is filed as physicochemical. On the procedure: (§4) Purified HisVAC is stable after 120 min incubation at pH ranging from 5 to 9. Enzymatic activity increases as a function of the pH of the reaction solution, in the range 5-10, reaching the highest value at 40° C. after 30 minutes reaction.
A short description of series [14]: Acylase kinetics, hydrolysis of glutaryl 7-ACA (7-ACA determined at 415 nm with p-dimethylaminobenzaldehyde). To be noted: glutaryl-7ACA as the substrate; after HiTrap Chelating purification. It is filed as biochemical. Here is the method: as §1, §3
Series [15] can be described thus: Dependence of enzymatic activity on pH and temperature. It is filed as biochemical. To be noted: after 30 minutes reaction. On the procedure: as §4
Setting [16] is: substrate Gl-7-ACA, read-out: Ki.
Setting [17] is: substrate concentration after which inhibition occurs.

Read-outs that look alike come from different tables or passages of the source.

`CC(=O)OCC1=C(C(=O)O)N2C(=O)[C@@H](N)[C@H]2SC1` [7-ACA, 7-amino-cephalosporanic acid]: the inhibition constant Ki (in general, the equilibrium dissociation constant of an inhibitor or competing ligand from its target) worked out at 11.3 mM in series [1] (setting [16]) and 4.7 mM in series [2] (substrate Gl-7-ACA).

With `CC(=O)OCC1=C(C(=O)O)N2C(=O)[C@@H](NC(=O)CCC[C@@H](N)C(=O)O)[C@H]2SC1` [Cef C, cephalosporin C], the Km – broadly, the substrate concentration at which the rate is half of its maximum – is 3200 µM in [3]; 8200 µM in series [4]; 6900 µM in [5]; 7700 µM in series [6]; 9500 µM in [7]; 4800 µM in [8]. Besides, the figures for the Michaelis constant (Km) in series [9], in series [10] and in [11] were 5200 µM, 8300 µM and 7700 µM, respectively. Also, the Vmax in [3] is recorded as 0.16 U/mg; in series [4], 0.23 U/mg; in series [5] it was 1.8 U/mg; in series [6], 0.21 U/mg; in series [7], 0.75 U/mg; in series [8], 0.2 U/mg. Moreover, the values for the Vmax in [9], in [10] and in [11] were 0.27 U/mg, 0.78 U/mg and 0.63 U/mg, respectively. The Inhibition after amounted to 50 mM in [4]; 25 mM in series [5]; 12.5 mM in [7]; 60 mM in [8]; 50 mM in series [9]; 50 mM in series [10]. In addition, the Inhibition after in series [11] is 25 mM.

Consider `CC(=O)OCC1=C(C(=O)O)N2C(=O)[C@@H](NC(=O)CCCC(=O)O)[C@H]2SC1` [Gl-7-ACA, glutaryl-7-ACA], for which the Km in series [3] is 1000 µM; in series [4] it was 1600 µM; in [5], 1700 µM; in [6] it was 850 µM; in series [7], 1700 µM; in series [8], 2000 µM. The Michaelis-Menten constant (Km) in series [9] was determined as 2800 µM; in series [10] it was 1200 µM; in series [11] it was 700 µM. Moreover, the Vmax in series [3] stood at 2 U/mg; in [4], 24.2 U/mg; in series [5] it was 16 U/mg; in series [6] it was 3.3 U/mg; in series [7], 6.2 U/mg; in series [8], 0.67 U/mg. The Vmax in series [9] was 4.3 U/mg; in series [10] it was 12.5 U/mg; in series [11], 2.0 U/mg. Besides, the Inhibition after in [3] (setting [17]) was found to be 25 mM; in [4], 12.5 mM; in [5], 12.5 mM; in series [6] (setting [17]) it was 50 mM; in [7], 12.5 mM; in series [8], 50 mM. Also, the values for the Inhibition after in series [9], in series [10] and in series [11] were 50 mM, 12.5 mM and 25 mM, respectively.

In the case of `O=C(O)CCCC(=O)O` [Glutaric Acid], the Ki in [1] (setting [16]) worked out at 6.1 mM; in series [2] (substrate Gl-7-ACA), 2.1 mM.

Consider `N[C@H](CCCC(=O)O)C(=O)O` [α-Aminoadipic], for which the inhibition constant Ki entry was “no inhibition” in series [1] (substrate Cef C) and 85.2 mM in [2] (substrate Cef C).

B1: wild-type: Designed cephalosporin C acylase based on Pseudomonas N176 acylase, Phe at 270, C-terminal LEHHHHHH tag (Seq. ID #1) (protein)
chain: MTMAANTDRAVLQAALPPLSGSLPIPGLSASVRVRRDAWGIPHIKASGEADAYRALGFVHSQDRLFQMELTRRKALGRAAEWLGAEAAEADILVRRLGMEKVCRRDFEALGVEAKDMLRAYVAGVNAFLASGAPLPVEYGLLGAEPEPWEPWHSIAVMRRLGLLMGSVWFKLWRMLALPVVGAANALKLRYDDGGRDLLCIPPGAEADRLEADLATLRPAVDALLKAMGGDASDAAGGGSNNWAVAPGRTATGRPILAGDPHRVFEIPGFYAQHHLACDRFDMIGLTVPGVPGFPHFAHNGKVAYCVTHAFMDIHDLYLEQFAGEGRTARFGNDFEPVAWSRDRIAVRGGADREFDIVETRHGPVIAGDPRDGAALTLRSVQFAETDLSFDCLTRMPGASTVAQLYDATRGWGLIDHNLVAGDVAGSIGHLVRARVPSRPRENGWLPVPGWSGEHEWRGWIPHEAMPRVIDPPGGIIVTANNRVVADDHPDYLCTDCHPPYRAERIMKRLVANPAFAVDDAAAIHADTLSPHVGLLRRRLEALGARDDSAAEGLRQMLVAWDGRMDAASEVASAYNAFRRALTRLVTDRSGLEQAISHPFAAVAPGVSPQGQVWWAVPTLLRDDDAGMLKGWSWDQALSEALSVASQNLTGRSWGEEHRPRFTHPLATQFPAWAGLLNPASRPIGGDGDTVLANGLVPSAGPQATYGALSRYVFDVGNWDNSRWVVFHGASGHPASAHYADQNAPWSDCAMVPMLYSWDRIAAEAVTSQELVPALEHHHHHH
modifications: C-terminal LEHHHHHH tag; Pseudomonas
For B1, the “Maximum conversion to 7-ACA” value in [12] (100 mM potassium phosphate pH 8, 20° C., HPLC) was found to be 92.8%. In series [12] (pH 8, 20° C.), the “Time to maximum conversion to 7-ACA” value stood at 150 min. Moreover, in series [13] (120 min incubation at pH ranging from 5 to 9), the “Stability to pH” value was “stable”. Further, the “Specific activity of purified enzyme” value in series [14] was determined as 6.5 U/mg proteins. Besides, the “Temperature of highest enzymatic activity” value in series [15] came out at 40 °C.

B2: A215Y: HisVAC mutant, alanine 215 replaced with Tyr (protein)
chain: MTMAANTDRAVLQAALPPLSGSLPIPGLSASVRVRRDAWGIPHIKASGEADAYRALGFVHSQDRLFQMELTRRKALGRAAEWLGAEAAEADILVRRLGMEKVCRRDFEALGVEAKDMLRAYVAGVNAFLASGAPLPVEYGLLGAEPEPWEPWHSIAVMRRLGLLMGSVWFKLWRMLALPVVGAANALKLRYDDGGRDLLCIPPGAEADRLEADLYTLRPAVDALLKAMGGDASDAAGGGSNNWAVAPGRTATGRPILAGDPHRVFEIPGFYAQHHLACDRFDMIGLTVPGVPGFPHFAHNGKVAYCVTHAFMDIHDLYLEQFAGEGRTARFGNDFEPVAWSRDRIAVRGGADREFDIVETRHGPVIAGDPRDGAALTLRSVQFAETDLSFDCLTRMPGASTVAQLYDATRGWGLIDHNLVAGDVAGSIGHLVRARVPSRPRENGWLPVPGWSGEHEWRGWIPHEAMPRVIDPPGGIIVTANNRVVADDHPDYLCTDCHPPYRAERIMKRLVANPAFAVDDAAAIHADTLSPHVGLLRRRLEALGARDDSAAEGLRQMLVAWDGRMDAASEVASAYNAFRRALTRLVTDRSGLEQAISHPFAAVAPGVSPQGQVWWAVPTLLRDDDAGMLKGWSWDQALSEALSVASQNLTGRSWGEEHRPRFTHPLATQFPAWAGLLNPASRPIGGDGDTVLANGLVPSAGPQATYGALSRYVFDVGNWDNSRWVVFHGASGHPASAHYADQNAPWSDCAMVPMLYSWDRIAAEAVTSQELVPALEHHHHHH
On to B2, for which the Thermal stability result in [13] (temperatures higher than 25° C.) was “more stable”.

These data come from patent US20050158818A1, “Cephalosporin C acylases” (ANTIBIOTICOS S.p.A., priority 2004, published 2005).
